Data on 1 compound can be found in US11396664B2, “Replicative transposon system” (Max-Delbrück-Centrum für Molekulare Medizin in der …, priority 2016, dated 2022).

The test system of this assay is Helraiser transposase, wild type (WT), SEQ ID NO: 1, consensus Helibat1 Helitron transposase from the bat Myotis lucifugus. Briefly: Colorimetric ATPase assay (ATP hydrolysis, malachite green). It is filed as biochemical. The conditions noted are these: purified transposase; 50 mM HEPES pH 7.5, 100 mM NaCl, 1 mM DTT, 2 mM MgCl2, 37° C; ATP 0.0078 to 1 mM. As for the experimental part: Protein Expression and Purification
Point mutations were made using the QuikChange site-directed mutagenesis method (Agilent). Baculovirus production and protein expression were performed by the Protein Expression Laboratory at the National Cancer Institute as follows:
Cell pellets were resuspended in Nickel affinity column binding buffer (20 mM NaH2PO4 pH 7.4, 500 mM NaCl, 50 mM imidazole, 1 mM TCEP). All subsequent steps were performed at 4° C. Lysis was done by incubating the cells on ice for 30 minutes, then sonication with a Misonix Sonicator 3000 (5×20-sec pulses with 3 minute pause at 82 Watts). […]
ATP hydrolysis was analyzed by measuring the formation of free phosphate (Pi) as a function of time using procedures adapted from Baykov et al. (Baykov A A, Evtushenko O A, Avaeva S M. A malachite green procedure for orthophosphate determination and its use in alkaline phosphatase-based enzyme immunoassay. Anal Biochem 171, 266-270 (1988)). […] An aliquot (150 μl) of a 1 mM malachite green stock solution was added to each well, and the absorbance at 650 nm was measured using a Molecular Devices Spectramax M5 microplate reader. The amount of phosphate released was calculated by comparison to a standard curve generated using KH2PO4. […]

As to `Nc1ncnc2c1ncn2[C@@H]1O[C@H](COP(=O)(O)OP(=O)(O)OP(=O)(O)O)[C@@H](O)[C@H]1O` [ATP], the Michaelis constant (Km) (usually the substrate concentration at which the rate is half of its maximum) is 46 µM and the “kcat (ATP hydrolysis)” value was found to be 6.8 ± 0.11 s⁻¹.
